In ChEMBL document CHEMBL4396877, “Design and Synthesis of TASIN Analogues Specifically Targeting Colorectal Cancer Cell Lines with Mutant Adenomatous Polyposis Coli (APC)” (J Med Chem, 2019):

Columns and labels:
[1] = Tmax in CD-1 mouse large intestine at 10 mg/kg, iv after 10 to 1440 mins by LC/MS analysis; format: ADME, organism-based
[2] = AUClast in CD-1 mouse Large intestine at 10 mg/kg, ip after 10 to 1440 mins by LC/MS analysis; format: ADME, organism-based; conditions: in vivo
[3] = Cmax in CD-1 mouse large intestine at 10 mg/kg, iv after 10 to 1440 mins by LC/MS analysis; format: ADME, organism-based; set-up: dose 10 mg/kg, route intravenous
[4] = Tmax in CD-1 mouse large intestine at 10 mg/kg, ip after 10 to 1440 mins by LC/MS analysis; format: ADME, organism-based
[5] = AUClast in CD-1 mouse Large intestine at 10 mg/kg, iv after 10 to 1440 mins by LC/MS analysis; format: ADME, organism-based; conditions: in vivo
[6] = Volume of distribution in CD-1 mouse by LC-MS/MS analysis; format: ADME; conditions: in vivo
[7] = Cmax in CD-1 mouse large intestine at 10 mg/kg, ip after 10 to 1440 mins by LC/MS analysis; format: ADME, organism-based; set-up: dose 10 mg/kg, route intraperitoneal
[8] = AUClast in CD-1 mouse Large intestine at 5 mg/kg, iv after 10 to 1440 mins by LC/MS analysis; format: ADME, organism-based; conditions: in vivo
[9] = Cmax in CD-1 mouse large intestine at 20 mg/kg, po after 10 to 1440 mins by LC/MS analysis; format: ADME, organism-based; set-up: dose 20 mg/kg, route oral
[10] = Ratio of drug level in lung to plasma of CD-1 mouse at 5 mg/kg, iv; format: ADME, organism-based
[11] = AUClast in CD-1 mouse Large intestine at 20 mg/kg, po after 10 to 1440 mins by LC/MS analysis; format: ADME, organism-based; conditions: in vivo
[12] = Cmax in CD-1 mouse large intestine at 5 mg/kg, iv after 10 to 1440 mins by LC/MS analysis; format: ADME, organism-based; set-up: dose 5 mg/kg, route intravenous
[13] = Tmax in CD-1 mouse large intestine at 5 mg/kg, iv after 10 to 1440 mins by LC/MS analysis; format: ADME, organism-based
[14] = Tmax in CD-1 mouse large intestine at 20 mg/kg, po after 10 to 1440 mins by LC/MS analysis; format: ADME, organism-based

SMILES | Tmax [1] [min] | AUClast [2] [ng·min/g] | Cmax [3] [ng/g] | Tmax [4] [min] | AUClast [5] [ng·min/g] | Vd [6] [L/kg] | Cmax [7] [ng/g] | AUClast [8] [ng·min/g] | Cmax [9] [ng/g] | Kp [10] | AUClast [11] [ng·min/g] | Cmax [12] [ng/g] | Tmax [13] [min] | Tmax [14] [min]
C#CCC1CCN(C2CCN(S(=O)(=O)c3ccc(Br)cc3)CC2)CC1 | 10 | 633289 | 2970 | 10 | 559037 | 5.87 to 63 | 5750 | – | – | – | – | – | – | –
CC1CCN(C2CCN(S(=O)(=O)c3ccc(Cl)cc3)CC2)CC1 | – | – | 1410 | – | 262874 | 5.87 to 63 | – | – | – | – | – | – | – | –
CC1CCN(C2CCN(S(=O)(=O)c3ccc(OC(F)F)cc3)CC2)CC1 | – | 790425 | – | 10 | – | 5.87 to 63 | 10100 | 511878 | 3250 | 5.7 | 890969 | 1820 | 10 | 10
COc1ccc(S(=O)(=O)N2CCC(N3CCC(C)CC3)CC2)cc1 | – | 737709 | – | 10 | – | – | 10700 | – | – | – | – | – | – | –
